Test results from patent US7781565B2 (priority 2006, dated 2010).

Each substance was assayed on NCI-60 cell lines.
Assay type: cell-based, human

Row | Substance | Cell Line with which the peptide (and its tripeptide motif) is associated | Cell Line (NCI-60 cell line the peptide is associated with) | Cell Line (NCI-60 cell line the peptide and its motif are associated with) | Cell Line the peptide is associated with (peptide recovered from phage library selection on this NCI-60 cell line)
1 | TLVLGGS | Hop-92-Lung | – | – | –
2 | LLRSSLG | – | HCT-116 Colon | – | –
3 | FAGAGVR | – | – | SK-OV-3-3 Ovarian | –
4 | PAVAGST | – | – | – | HS 578 T Breast
5 | RRPGLRS | – | HT-29 Colon | – | –
6 | RLHYLRS | – | – | M14 Melanoma | –
7 | VVMIAGS | – | – | – | MDA-MB-231 Breast
8 | AGGIWIR | – | KM-12C Colon | – | –
9 | LGYYGAV | – | – | – | T-47D Breast
10 | THRNRSS | SR Leukemia | – | – | –
11 | DSGLVGG | – | LOX-IMVI Melanoma | – | –
12 | FGGSGVL | H460-Lung | – | – | –
13 | WISAVSK | – | – | SK-OV-3-3 Ovarian | –
14 | YFRARGS | – | – | 786-0 Renal | –
15 | RAAGRVG | – | HCT-15 Colon | – | –
16 | SGGLAVA | – | – | UACC 257 Melanoma | –
17 | LGVREVG | – | – | – | HS 578 T Breast
18 | EGTSGSV | – | KM-12C Colon | – | –
19 | RVPTGVR | – | – | – | SN12C Renal
20 | SRASGHG | – | HT-29 Colon | – | –
21 | YWFIGLG | EKVX-Lung | – | – | –
22 | VDGSGDD | – | – | DU-145 Prostate | –
23 | AIMGAGL | – | – | OVCAR-8 Ovarian | –
24 | GRIRLSF | – | – | – | RXF393 Renal
25 | LARGVPP | – | – | M14 Melanoma | –
26 | GRVTLES | – | – | OVCAR-3 Ovarian | –
27 | GRGDRGV | – | – | SK-MEL-28 Melanoma | –

Row | Substance | Cell Line with which the peptide (and its tripeptide motif) is associated | Cell Line (NCI-60 cell line the peptide is associated with) | Cell Line (NCI-60 cell line the peptide and its motif are associated with) | Cell Line the peptide is associated with (peptide recovered from phage library selection on this NCI-60 cell line)
28 | WGSGRGN | HL-60-Leukemia | – | – | –
29 | VPLRSSA | – | HT-29 Colon | – | –
30 | RASCVWA | – | – | – | MCF-7 Breast
31 | LGGRLSL | – | – | – | MDA-MB-231 Breast
32 | INRGSRE | – | – | SK-MEL-28 Melanoma | –
33 | GVLSDRS | – | – | SK-MEL-2 Melanoma | –
34 | GSGGANL | – | – | DU-145 Prostate | –
35 | LSTPGRV | – | – | – | UO31 Renal
36 | TEGSVTV | HL-60-Leukemia | – | – | –
37 | ASEGGRA | – | – | SK-OV-3-3 Ovarian | –
38 | GGSSEFR | Hop-92-Lung | – | – | –
39 | GVNGSVS | – | – | SK-MEL-28 Melanoma | –
40 | ARYSLRS | – | – | 786-0 Renal | –
41 | WAGLSRP | – | – | – | SN12C Renal
42 | RGSWAGV | – | HT-29 Colon | – | –
43 | SVVLAGS | – | LOX-IMVI Melanoma | – | –
44 | IDLVSPG | – | – | OVCAR-8 Ovarian | –
45 | LRGSRQF | – | – | SK-MEL-28 Melanoma | –
46 | LKVRGVL | – | HT-29 Colon | – | –
47 | AGVFAVS | HL-60-Leukemia | – | – | –
48 | AGLEDLG | – | – | – | RXF393 Renal
49 | HVRGRVA | – | – | SK-MEL-5 Melanoma | –
50 | QWYSLRS | – | LOX-IMVI Melanoma | – | –
51 | GAAASGY | – | SW620-Colon | – | –
52 | ASGTLLR | – | – | SK-MEL-28 Melanoma | –
53 | FRFVRGS | – | – | – | HS 578 T Breast
